From patent US20220289688A1, “RNA-TARGETING LIGANDS, COMPOSITIONS THEREOF, AND METHODS OF MAKING AND USING THE SAME” (THE UNIVERSITY OF NORTH CAROLINA AT CHAPEL HILL, priority 2019, published 2022)
Values joined by “and” are separate entries in the source; they are usually repeats but may differ in a detail not shown here. Equal values may be shown once. “Also recorded” adds a separate entry of the source. Read-outs that look alike come from different tables or passages of the source.

Columns and labels:
TPP riboswitch RNA = experiment: Isothermal titration calorimetry (ITC), ligand titrated into RNA; assay type: binding; conditions: for Kd / Binding affinity relative to a named comparator compound / Kd (μM): ITC; for Effect of modification on RNA binding affinity (FIG. 5): linked fragments 17 and 31, dissociation constants by ITC; for Binding affinity relative to a named comparator compound: comparator named in value
[1] = Solubility at concentrations required for ITC; assay type: physicochemical; conditions: ITC buffer
Method: (§1) ITC experiments were performed using a Microcal PEAQ-ITC automated instrument (Malvern Analytical) under RNase-free conditions^41. In vitro transcribed RNA was exchanged into folding buffer containing 100 mM CHES, pH 8.0, 200 mM potassium acetate, and 3 mM MgCl2 using centrifugal concentration (Amicon Ultra centrifugal filters, 10K MWCO, Millipore-Sigma). Ligands were dissolved into the same buffer (to minimize heat of mixing upon addition of ligand to RNA) at a concentration 10-20 times the desired experimental concentration of RNA. RNA concentration was quantified (Nanodrop UV-VIS spectrometer; ThermoFisher Scientific), diluted to 1-10 times the expected […] in buffer, and the diluted RNA was re-quantified to confirm the final experimental RNA concentration. The RNA, diluted in folding buffer, was heated at 65° C. for 5 minutes, placed on ice for 5 minutes, and allowed to fold at 37° C. for 15 minutes. if needed, the primary binding ligand (for example, 2) was pre-bound to the RNA by adding 0.1 volume at 10 times the desired final concentration of the bound ligand, followed by incubation at room temperature for 10 minutes.

[2] = tested on: TPP riboswitch region of the screening construct; experiment: SHAPE second-fragment screen of RNA construct pre-bound to primary fragment; assay type: binding; conditions: RNA pre-bound to 2 or S12; fragment 1 mM
Method: For the first-fragment-ligand screen, 5 pmol of RNA per well were diluted to […] in RNase-free water on a 4° C. cooling block. The plate was heated at 95° C. for 2 minutes, immediately followed by snap cooling at 4° C. for 5 minutes. To each well was added 19.6 μL of 2× folding buffer (final concentrations 50 mM HEPES pH 8.0, 200 mM potassium acetate, and 10 mM MgCl2), and plates were incubated at 37° C. for 30 minutes. […] To combine the target RNA with fragment, 24.3 μL of RNA solution or RNA plus primary binding fragment were added to wells containing 2.7 μL of 10× screening fragments (in DMSO to yield a final fragment concentration of 1 mM). Solutions were mixed thoroughly by pipetting and incubated for 10 minutes at 37° C. […]
Once screening of test fragments is complete, statistical tests are carried out to identify differences in modification rates of a given nucleotide. […] That is, if m1 modifications of a tested nucleotide were counted among n1 reads in sample 1 and m2 modifications were counted among n2 reads in sample 2, the tested null hypothesis predicts that among all the counted modifications (m1+m2), the proportion of modifications in sample 1 will be p1=n1/(n1+n2). […]

2-TPP RNA complex = experiment: ITC with primary binding fragment pre-bound to the RNA; conditions: for Binding cooperativity with 2: ITC in presence and absence of pre-bound 2; for Kd: ITC
Method: as §1
Each ITC experiment involved two runs: one in which the ligand was titrated into RNA (the experimental trace) and one in which the same ligand was titrated into buffer (the control trace). ITC experiments were performed using the following parameters: 25° C. cell temperature, 8 μCal/sec reference power, 750 RPM stirring speed, high feedback mode, 0.2 μL initial injection, followed by 19 injections of 2 μL. Each injection required 4 seconds to complete, and there was a 180-second spacing between injections.
ITC data was analyzed using MicroCal PEAQ-ITC Analysis Software (Malvern Analytical). First, the baseline for each injection peak was manually adjusted to resolve any incorrectly selected injection endpoints. Second, the control trace was subtracted from the experimental trace by point-to-point subtraction. Third, a least-squares regression line was fit to the data using the Levenberg-Marquardt algorithm. In the case of weakly binding ligands (>500 μM), N was manually set to 1.0 to enable fitting of low c-value curves.

[3] = primary-screen hits, Table 1, value ± error, read-out: Kd
[4] = fragment 2 analogs, pendant groups, Table 2B, read-out: Kd
[5] = no ligand pre-bound, Table 6, read-out: Kd (mM) No ligand bound
[6] = primary fragment pre-bound to TPP riboswitch RNA, Table 6, read-out: Kd (mM) 5 pre-bound
[7] = fragment 5 analogs, pendant groups, Table 4, read-out: Kd
[8] = fragment 5 analogs, pendant groups, Table 4

`C#Cc1ccc2nccnc2c1` [Compound 1] gave a Kd (TPP riboswitch RNA; [3]) of 11 ± 0.2 µM.

Work on `Nc1ccc2nccnc2c1` [Compound 2] yielded a Kd (TPP riboswitch RNA; fragment 2 analogs, quinoxaline core modifications, Table 2A, read-out: Kd) of 25 µM, a Kd (TPP riboswitch RNA; [3]) of 25 ± 6 µM and a Kd (TPP riboswitch RNA; read-out: Kd) of 25 µM.

`COc1ccc2nsnc2c1` [Compound 3] gave a Kd (TPP riboswitch RNA; [3]) of 95 ± 3 µM.

In the case of `NCc1ccc(-c2csnn2)cc1` [Compound 4], the Kd (TPP riboswitch RNA; [3]) is reported as 220 ± 10 µM.

Molecule `COC(=O)c1ccc(Cl)nc1` [Compound 5] has a Kd (TPP riboswitch RNA; [3]) of 265 ± 80 µM.

Molecule `c1cc2[nH]cnc2cn1` [Compound 6] has a Kd (TPP riboswitch RNA; fragment 5 analogs, pyridine core modifications, Table 3, read-out: Kd) of 266 µM and a Kd (TPP riboswitch RNA; [3]) of 650 ± 100 µM.

For `O=C1CC(C(F)(F)F)=NN1` [Compound 7], the “Solubility at concentrations required for ITC” value (from here on “Solubility”) [1] was “insoluble”.

For `O=C(O)c1cncc(-c2cccs2)c1` [Compound 8], the “Solubility” value [1] was “insoluble”.

`Cc1ncc(C[n+]2csc(CCOP(=O)([O-])OP(=O)(O)O)c2C)c(N)n1` [Compound 9, thiamine pyrophosphate, reference compound] showed a Kd (TPP riboswitch RNA; [3]) of 0.029 ± 0.002 µM.

Work on `OCc1ccc2nccnc2c1` [Compound 15] yielded a Kd (TPP riboswitch RNA; [4]) of 18 µM.

`O=Cc1ccc2nccnc2c1` [Compound 18] showed a Kd (TPP riboswitch RNA; [4]) of 35 µM.

In the case of `COC(=O)c1ccc2nccnc2c1` [Compound 19], the Kd (TPP riboswitch RNA; [4]) is reported as 58 µM and the Kd (TPP riboswitch RNA; read-out: Kd) is reported as 5 µM.

`Cc1ccc2nccnc2c1` [Compound 20] gave a Kd (TPP riboswitch RNA; [4]) of 33 µM.

`Nc1cccc2nccnc12` [Compound 21] gave a Kd (TPP riboswitch RNA; [4]) of 75 µM.

`Fc1cccc2nccnc12` [Compound 23] showed a Kd (TPP riboswitch RNA; [4]) of 220 µM.

`Nc1cnc2ccccc2n1` [Compound 24] showed a Kd (TPP riboswitch RNA; [4]) of 379 µM.

Work on `NC(=O)c1cnc2ccccc2n1` [Compound 25] yielded a Kd (TPP riboswitch RNA; [4]) of 600 µM.

With `Cc1cc(N2CCNCC2)c2ccccc2n1` [Compound 28] the “Solubility” value [1] was “insoluble”.

With `O=C(O)c1csc2ccc(Cl)cc12` [Compound 29] the “SHAPE result of second-round screen” value [2] was “caused changes in other areas of the RNA consistent with nonspecific interactions”.

For `c1cc(N2CCNCC2)ccn1` [Compound 31], the Kd (TPP riboswitch RNA; fragment alone, read-out: Kd) was 10000 µM and ≥ 10000 µM, the Kd (TPP riboswitch RNA; [5]) was greater than 10000 µM and the “Binding cooperativity with 2” value (2-TPP RNA complex) was “clear, but modest, binding cooperativity with 2”. The Kd (2-TPP RNA complex; 2 pre-bound to the TPP riboswitch RNA, read-out: Kd) was roughly 3 mM and the Kd (2-TPP RNA complex; [6]) was 3 mM.

For `Cc1cnccc1N1CCNCC1` [Compound 32], the Kd (TPP riboswitch RNA; [5]) was greater than 10000 µM, the “Binding cooperativity with 2” value (2-TPP RNA complex) was “clear, but modest, binding cooperativity with 2” and the Kd (2-TPP RNA complex; [6]) was 4 mM.

Work on `NCCCN1CCN(c2ccncc2)CC1` [Compound 33] yielded a Kd (TPP riboswitch RNA; [5]) greater than 10000 µM.

In the case of `Nc1cnccc1N1CCNCC1` [Compound 34], the Kd (TPP riboswitch RNA; [5]) is reported as greater than 10000 µM.

In the case of `O=C(CCC(=O)Nc1ccc2nccnc2c1)NO` [Compound 35], the “Effect of modification on RNA binding affinity (FIG. 5)” value (“Effect of modification” for short) (TPP riboswitch RNA) is reported as “negative modification”.

For `O=C(CCNc1ccc2nccnc2c1)NO` [Compound 36], the “Binding affinity relative to a named comparator compound” value (TPP riboswitch RNA) was “fivefold higher binding affinity than the amide-linked version; also recorded: affinity similar to that of the parent fragment 17” and the “Effect of modification” value (TPP riboswitch RNA) was “increase RNA binding affinity”.

For `c1cc(N2CCCCC2)c(NCc2ccc3nccnc3c2)cn1` [Compound 37], the Kd (TPP riboswitch RNA; read-out: Kd (affinity)) was 0.625 µM and the “Effect of modification” value (TPP riboswitch RNA) was “increase RNA binding affinity”.

For `CN(C)CCNCc1ccc2nccnc2c1` [Compound 38], the “Binding affinity relative to a named comparator compound” value (TPP riboswitch RNA) was “reduced affinity relative to compound 37” and the “Effect of modification” value (TPP riboswitch RNA) was “neutral modifications”.

With `c1cc(N2CCNCC2)c(CNCc2ccc3nccnc3c2)cn1` [Compound 39] the “Binding affinity relative to a named comparator compound” value (TPP riboswitch RNA) was “reduces affinity relative to compound 37” and the “Effect of modification” value (TPP riboswitch RNA) was “negative modification”.

With `c1cnc2cc(CNc3cncc(N4CCNCC4)c3)ccc2n1` [Compound 40] the “Binding affinity relative to a named comparator compound” value (TPP riboswitch RNA) was “reduces affinity relative to compound 37” and the “Effect of modification” value (TPP riboswitch RNA) was “negative modification”.

Molecule `COC(=O)c1ccc(Br)cc1` [compound 85] has a Kd (TPP riboswitch RNA; [7]) of 440 µM.

`COC(=O)c1ccc([N+](=O)[O-])cc1` [compound 86] gave a Kd (TPP riboswitch RNA; [7]) of 390 µM.

For `CCOc1ccc(C(=O)OC)cc1` [compound 87], the Kd (TPP riboswitch RNA; [7]) was 1800 µM.

For `COC(=O)c1ccc(N)cc1` [compound 88], the Kd (TPP riboswitch RNA; [7]) was 1100 µM.

In the case of `COC(=O)c1ccc(C(F)(F)F)cc1` [compound 89], the “Kd (μM)” value (TPP riboswitch RNA; [8]) is reported as “no binding”.

In the case of `COC(=O)c1ccc(Oc2ccccc2)cc1` [compound 810], the “Kd (μM)” value (TPP riboswitch RNA; [8]) is reported as “no binding”.

With `COC(=O)c1ccc(Cl)c(Cl)c1` [compound 811] the Kd (TPP riboswitch RNA; [7]) was 820 µM.

With `COC(=O)c1ccc(Cl)cc1Cl` [compound 812] the “Binding affinity relative to a named comparator compound” value (TPP riboswitch RNA) was “approximately threefold higher affinity for the TPP riboswitch than did fragment 5” and the Kd (TPP riboswitch RNA; [7]) was 93 µM.

Work on `CCOC(=O)c1ccc(Cl)cc1` [compound 813] yielded a Kd (TPP riboswitch RNA; [7]) of 600 µM.

Work on `OCc1ccc(Cl)cc1` [compound 814] yielded a Kd (TPP riboswitch RNA; [7]) of 1300 µM.

For `NC(=O)c1ccc(Cl)cc1` [compound 815], the Kd (TPP riboswitch RNA; [7]) was 1800 µM.

With `NS(=O)(=O)c1ccc(Cl)cc1` [compound 816] the Kd (TPP riboswitch RNA; [7]) was 1300 µM.

For `CCS(=O)(=O)c1ccc(Cl)cc1` [compound 817], the “Kd (μM)” value (TPP riboswitch RNA; [8]) was “no binding”.

In the case of `CN(C)C(=O)c1ccc(Cl)cc1` [compound 818], the “Kd (μM)” value (TPP riboswitch RNA; [8]) is reported as “no binding”.
